Laboratory results taken from ChEMBL document CHEMBL1201862, “PubChem BioAssay data set” (2004).
The source made the active and inactive calls.

How the values were obtained:
Assay type in all cases: functional
[1] = target: Megakaryocyte-associated tyrosine-protein kinase (Homo sapiens, UniProt P42679);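 note: affinity measured as one member of a kinase panel (Navigating the Kinome) against MATK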
[2] = target: Dual specificity protein kinase CLK2 (Homo sapiens, UniProt P49760)
[3] = target: Phosphorylase b kinase gamma catalytic chain, liver/testis isoform (Homo sapiens, UniProt P15735);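 note: PHKG2 measured as one member of a kinome-wide kinase panel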
[4] = target: Protein kinase C delta type (Homo sapiens, UniProt Q05655)
[5] = target: Ribosomal protein S6 kinase beta-1 (Homo sapiens, UniProt P23443);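 note: measured as one member of a kinome-wide profiling panel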
[6] = target: Calcium/calmodulin-dependent protein kinase type II subunit gamma (Homo sapiens, UniProt Q13555)
[7] = target: Tyrosine-protein kinase receptor TYRO3 (Homo sapiens, UniProt Q06418);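 note: TYRO3 value obtained as one member of a kinome-wide profiling panel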
[8] = target: Serine/threonine-protein kinase Chk2 (Homo sapiens, UniProt O96017);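 note: CHEK2 entry within a kinome-wide screening panel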
[9] = target: MAP kinase-activated protein kinase 5 (Homo sapiens, UniProt Q8IW41);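 note: measured as one member of a kinome panel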
[10] = target: MAP kinase-activated protein kinase 2 (Homo sapiens, UniProt P49137);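 note: measured as one member of a kinome-wide kinase panel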
[11] = target: Tyrosine-protein kinase BTK (Homo sapiens, UniProt Q06187)
[12] = target: Casein kinase II subunit alpha (Homo sapiens, UniProt P68400)
[13] = target: Serine/threonine-protein kinase PAK 4 (Homo sapiens, UniProt O96013);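 note: value obtained within a kinome profiling panel in which PAK4 was one of the panel members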
[14] = target: Tyrosine-protein kinase JAK3 (Homo sapiens, UniProt P52333)
[15] = target: Mitogen-activated protein kinase 9 (Homo sapiens, UniProt P45984);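 note: value from a kinome panel profiling assay, MAPK9 panel entry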
[16] = target: Tyrosine-protein kinase ITK/TSK (Homo sapiens, UniProt Q08881);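 note: affinity for ITK measured as one member of a broad kinase panel profiling binding across the kinome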
[17] = target: Serine/threonine-protein kinase N2 (Homo sapiens, UniProt Q16513)
[18] = target: Testis-specific serine/threonine-protein kinase 1 (Homo sapiens, UniProt Q9BXA7)
[19] = target: Homeodomain-interacting protein kinase 2 (Homo sapiens, UniProt Q9H2X6);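 note: measured within a kinome-wide kinase profiling panel, HIPK2 being one panel member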
[20] = target: High affinity nerve growth factor receptor (Homo sapiens, UniProt P04629);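 note: NTRK1 tested as one member of a kinome-wide profiling panel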
[21] = target: Mitogen-activated protein kinase 13 (Homo sapiens, UniProt O15264)
[22] = target: Non-receptor tyrosine-protein kinase TYK2 (Homo sapiens, UniProt P29597)
[23] = target: Proto-oncogene tyrosine-protein kinase Src (Homo sapiens, UniProt P12931);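 note: SRC entry within a kinome-wide kinase profiling panel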
[24] = target: Glycogen synthase kinase-3 alpha (Homo sapiens, UniProt P49840);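 note: GSK3A result taken from a broad kinome-wide kinase panel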
[25] = target: Mitogen-activated protein kinase kinase kinase kinase 2 (Homo sapiens, UniProt Q12851);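 note: measured as one member of a kinome-wide kinase panel, with MAP4K2 as the panel entry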
[26] = target: Serine/threonine-protein kinase Chk1 (Homo sapiens, UniProt O14757);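 note: measured as one member of a kinome-wide kinase profiling panel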
[27] = target: MAP kinase-interacting serine/threonine-protein kinase 2 (Homo sapiens, UniProt Q9HBH9)
[28] = target: Calcium/calmodulin-dependent protein kinase type II subunit beta (Homo sapiens, UniProt Q13554)
[29] = target: Vascular endothelial growth factor receptor 2 (Homo sapiens, UniProt P35968)
Ephrin type-A receptor 2 = Ephrin type-A receptor 2 (Homo sapiens, UniProt P29317);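 note: EPHA2 tested as one member of a kinome-wide kinase panel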
[30] = target: cAMP-dependent protein kinase catalytic subunit PRKX (Homo sapiens, UniProt P51817)
[31] = target: Interleukin-1 receptor-associated kinase 1 (Homo sapiens, UniProt P51617);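 note: IRAK1 tested as one member of a kinome panel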
[32] = target: Mitogen-activated protein kinase kinase kinase kinase 5 (Homo sapiens, UniProt Q9Y4K4);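 note: measured as one member of a kinome-spanning kinase panel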
[33] = target: Rho-associated protein kinase 1 (Homo sapiens, UniProt Q13464);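 note: measured within a broad kinome-wide panel profiling many kinases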
[34] = target: Tyrosine-protein kinase Fer (Homo sapiens, UniProt P16591);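 note: FER tested as one member of a kinome panel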
[35] = target: Homeodomain-interacting protein kinase 4 (Homo sapiens, UniProt Q8NE63)
[36] = target: Cyclin-dependent kinase 1 (Homo sapiens, UniProt P06493);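 note: Kinome-wide panel profiling, with the target listed as panel member CDC2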
[37] = target: Serine/threonine-protein kinase Nek2 (Homo sapiens, UniProt P51955)
[38] = target: Serine/threonine-protein kinase PLK1 (Homo sapiens, UniProt P53350);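 note: PLK1 measured as one member of a kinome-wide profiling panel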
[39] = target: Cyclin-dependent kinase 9 (Homo sapiens, UniProt P50750);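 note: value from the CDK9 entry of a kinome-spanning kinase panel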
[40] = target: cAMP-dependent protein kinase catalytic subunit alpha (Homo sapiens, UniProt P17612)
[41] = target: Dual specificity protein kinase CLK4 (Homo sapiens, UniProt Q9HAZ1)
[42] = target: Mitogen-activated protein kinase kinase kinase kinase 4 (Homo sapiens, UniProt O95819)
[43] = target: Serine/threonine-protein kinase MRCK alpha (Homo sapiens, UniProt Q5VT25)
[44] = target: Macrophage colony-stimulating factor 1 receptor (Homo sapiens, UniProt P07333);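 note: value comes from the Navigating the Kinome screening panel, CSF1R member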
[45] = target: Serine/threonine-protein kinase BRSK1 (Homo sapiens, UniProt Q8TDC3);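 note: measured within a kinome-wide kinase panel, with the target listed as KIAA1811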

Chain of Proto-oncogene tyrosine-protein kinase Src (P12931 2-536 limits assumed): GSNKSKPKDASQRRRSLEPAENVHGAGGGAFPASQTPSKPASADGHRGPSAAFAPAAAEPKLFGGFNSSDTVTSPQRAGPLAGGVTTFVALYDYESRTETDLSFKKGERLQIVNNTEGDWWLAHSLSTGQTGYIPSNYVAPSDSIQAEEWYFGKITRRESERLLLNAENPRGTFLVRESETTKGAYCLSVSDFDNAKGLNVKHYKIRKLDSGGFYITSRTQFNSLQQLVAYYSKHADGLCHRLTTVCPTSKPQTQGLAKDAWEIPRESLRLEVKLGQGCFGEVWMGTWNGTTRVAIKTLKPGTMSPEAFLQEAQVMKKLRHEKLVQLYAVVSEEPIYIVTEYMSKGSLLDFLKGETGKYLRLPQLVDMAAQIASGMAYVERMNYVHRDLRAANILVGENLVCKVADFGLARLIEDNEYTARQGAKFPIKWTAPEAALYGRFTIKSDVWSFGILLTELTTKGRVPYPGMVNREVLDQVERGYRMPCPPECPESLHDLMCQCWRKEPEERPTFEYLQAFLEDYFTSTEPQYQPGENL
Chain of Calcium/calmodulin-dependent protein kinase type II subunit gamma (Q13555 whole entry): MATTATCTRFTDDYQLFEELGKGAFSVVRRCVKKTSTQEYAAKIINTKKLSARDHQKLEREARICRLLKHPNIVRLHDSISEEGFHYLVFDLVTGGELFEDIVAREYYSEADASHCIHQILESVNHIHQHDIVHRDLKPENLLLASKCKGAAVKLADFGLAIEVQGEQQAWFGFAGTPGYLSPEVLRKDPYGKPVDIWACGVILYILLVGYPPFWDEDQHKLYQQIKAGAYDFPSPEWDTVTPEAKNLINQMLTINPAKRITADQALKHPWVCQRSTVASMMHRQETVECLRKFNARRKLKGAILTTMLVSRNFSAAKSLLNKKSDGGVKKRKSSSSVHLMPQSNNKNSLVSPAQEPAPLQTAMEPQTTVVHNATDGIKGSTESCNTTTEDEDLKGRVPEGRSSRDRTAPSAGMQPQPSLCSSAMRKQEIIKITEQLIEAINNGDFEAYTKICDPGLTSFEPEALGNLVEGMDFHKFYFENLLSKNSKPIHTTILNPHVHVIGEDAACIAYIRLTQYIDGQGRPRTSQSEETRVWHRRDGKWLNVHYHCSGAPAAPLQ
Chain of Serine/threonine-protein kinase Nek2 (P51955 whole entry): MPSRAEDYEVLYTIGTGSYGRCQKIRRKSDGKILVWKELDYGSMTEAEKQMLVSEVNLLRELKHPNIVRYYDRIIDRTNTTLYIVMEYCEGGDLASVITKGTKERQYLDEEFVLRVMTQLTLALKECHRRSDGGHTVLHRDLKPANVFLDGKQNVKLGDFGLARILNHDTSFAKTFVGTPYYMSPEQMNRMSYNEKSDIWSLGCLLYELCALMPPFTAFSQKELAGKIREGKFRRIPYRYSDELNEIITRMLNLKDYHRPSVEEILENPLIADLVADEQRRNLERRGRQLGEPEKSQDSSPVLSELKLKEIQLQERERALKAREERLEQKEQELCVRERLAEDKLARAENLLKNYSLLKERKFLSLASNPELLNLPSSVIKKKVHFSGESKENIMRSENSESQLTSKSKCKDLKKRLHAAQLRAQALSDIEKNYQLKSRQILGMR
Chain of Mitogen-activated protein kinase 9 (P45984 whole entry): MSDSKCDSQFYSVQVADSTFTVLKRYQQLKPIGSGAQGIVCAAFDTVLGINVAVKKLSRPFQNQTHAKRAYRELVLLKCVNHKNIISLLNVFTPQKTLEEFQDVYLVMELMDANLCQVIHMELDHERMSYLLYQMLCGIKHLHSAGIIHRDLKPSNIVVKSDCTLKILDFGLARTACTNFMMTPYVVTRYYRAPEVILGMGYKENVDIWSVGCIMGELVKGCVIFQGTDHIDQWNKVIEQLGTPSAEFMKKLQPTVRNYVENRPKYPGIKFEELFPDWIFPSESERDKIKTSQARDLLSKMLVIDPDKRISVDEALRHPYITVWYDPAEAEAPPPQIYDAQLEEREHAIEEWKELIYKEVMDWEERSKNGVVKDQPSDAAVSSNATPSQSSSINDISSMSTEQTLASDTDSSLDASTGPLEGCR
Chain of Rho-associated protein kinase 1 (Q13464 whole entry): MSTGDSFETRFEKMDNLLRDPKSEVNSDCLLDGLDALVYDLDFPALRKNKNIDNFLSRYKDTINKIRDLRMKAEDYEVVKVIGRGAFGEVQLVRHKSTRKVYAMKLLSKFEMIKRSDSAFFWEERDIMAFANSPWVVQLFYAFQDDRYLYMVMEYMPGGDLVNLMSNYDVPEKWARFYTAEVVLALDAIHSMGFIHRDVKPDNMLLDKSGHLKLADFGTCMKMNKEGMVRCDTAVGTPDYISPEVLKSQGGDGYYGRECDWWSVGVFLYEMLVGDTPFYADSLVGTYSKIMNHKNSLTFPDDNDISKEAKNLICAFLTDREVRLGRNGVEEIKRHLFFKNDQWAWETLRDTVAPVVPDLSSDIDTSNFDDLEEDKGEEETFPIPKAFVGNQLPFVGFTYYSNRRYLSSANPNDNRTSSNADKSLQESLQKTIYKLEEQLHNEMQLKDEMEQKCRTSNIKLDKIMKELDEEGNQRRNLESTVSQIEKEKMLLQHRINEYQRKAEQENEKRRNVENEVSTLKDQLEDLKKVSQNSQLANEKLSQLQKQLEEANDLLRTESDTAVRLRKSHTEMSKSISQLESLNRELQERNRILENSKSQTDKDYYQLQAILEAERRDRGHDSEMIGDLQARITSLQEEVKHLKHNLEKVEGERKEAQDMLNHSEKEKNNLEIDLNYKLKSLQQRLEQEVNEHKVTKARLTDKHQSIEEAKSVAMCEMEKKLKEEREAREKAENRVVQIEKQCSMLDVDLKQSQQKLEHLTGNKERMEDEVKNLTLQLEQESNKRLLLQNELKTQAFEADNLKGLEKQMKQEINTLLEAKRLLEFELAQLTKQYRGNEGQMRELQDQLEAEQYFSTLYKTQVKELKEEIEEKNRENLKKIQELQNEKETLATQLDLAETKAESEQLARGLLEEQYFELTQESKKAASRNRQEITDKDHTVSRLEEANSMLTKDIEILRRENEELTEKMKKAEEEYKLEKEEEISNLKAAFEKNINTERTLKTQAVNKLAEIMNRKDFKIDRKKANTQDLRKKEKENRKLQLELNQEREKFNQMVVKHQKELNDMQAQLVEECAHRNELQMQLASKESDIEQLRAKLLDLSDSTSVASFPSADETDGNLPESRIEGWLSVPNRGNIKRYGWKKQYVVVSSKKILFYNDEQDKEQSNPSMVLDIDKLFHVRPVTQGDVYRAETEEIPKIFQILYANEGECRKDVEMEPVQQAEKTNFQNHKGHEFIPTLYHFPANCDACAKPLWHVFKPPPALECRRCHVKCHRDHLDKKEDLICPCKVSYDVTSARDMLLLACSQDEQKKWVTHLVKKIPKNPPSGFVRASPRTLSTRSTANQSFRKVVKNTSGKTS
Chain of Dual specificity protein kinase CLK4 (Q9HAZ1 whole entry): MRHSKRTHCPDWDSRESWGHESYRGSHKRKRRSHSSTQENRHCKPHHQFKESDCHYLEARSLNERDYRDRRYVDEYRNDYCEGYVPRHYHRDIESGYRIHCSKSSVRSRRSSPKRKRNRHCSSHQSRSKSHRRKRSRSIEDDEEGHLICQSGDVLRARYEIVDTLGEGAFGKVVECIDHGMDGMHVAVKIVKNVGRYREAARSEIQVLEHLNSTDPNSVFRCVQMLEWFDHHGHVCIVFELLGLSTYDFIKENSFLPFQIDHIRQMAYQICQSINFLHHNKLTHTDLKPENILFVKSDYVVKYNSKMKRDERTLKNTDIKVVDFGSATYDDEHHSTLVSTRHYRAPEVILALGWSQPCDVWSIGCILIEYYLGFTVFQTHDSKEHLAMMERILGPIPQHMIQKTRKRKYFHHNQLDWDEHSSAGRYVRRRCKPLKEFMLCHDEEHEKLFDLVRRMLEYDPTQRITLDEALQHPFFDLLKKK
Chain of Homeodomain-interacting protein kinase 2 (Q9H2X6 whole entry): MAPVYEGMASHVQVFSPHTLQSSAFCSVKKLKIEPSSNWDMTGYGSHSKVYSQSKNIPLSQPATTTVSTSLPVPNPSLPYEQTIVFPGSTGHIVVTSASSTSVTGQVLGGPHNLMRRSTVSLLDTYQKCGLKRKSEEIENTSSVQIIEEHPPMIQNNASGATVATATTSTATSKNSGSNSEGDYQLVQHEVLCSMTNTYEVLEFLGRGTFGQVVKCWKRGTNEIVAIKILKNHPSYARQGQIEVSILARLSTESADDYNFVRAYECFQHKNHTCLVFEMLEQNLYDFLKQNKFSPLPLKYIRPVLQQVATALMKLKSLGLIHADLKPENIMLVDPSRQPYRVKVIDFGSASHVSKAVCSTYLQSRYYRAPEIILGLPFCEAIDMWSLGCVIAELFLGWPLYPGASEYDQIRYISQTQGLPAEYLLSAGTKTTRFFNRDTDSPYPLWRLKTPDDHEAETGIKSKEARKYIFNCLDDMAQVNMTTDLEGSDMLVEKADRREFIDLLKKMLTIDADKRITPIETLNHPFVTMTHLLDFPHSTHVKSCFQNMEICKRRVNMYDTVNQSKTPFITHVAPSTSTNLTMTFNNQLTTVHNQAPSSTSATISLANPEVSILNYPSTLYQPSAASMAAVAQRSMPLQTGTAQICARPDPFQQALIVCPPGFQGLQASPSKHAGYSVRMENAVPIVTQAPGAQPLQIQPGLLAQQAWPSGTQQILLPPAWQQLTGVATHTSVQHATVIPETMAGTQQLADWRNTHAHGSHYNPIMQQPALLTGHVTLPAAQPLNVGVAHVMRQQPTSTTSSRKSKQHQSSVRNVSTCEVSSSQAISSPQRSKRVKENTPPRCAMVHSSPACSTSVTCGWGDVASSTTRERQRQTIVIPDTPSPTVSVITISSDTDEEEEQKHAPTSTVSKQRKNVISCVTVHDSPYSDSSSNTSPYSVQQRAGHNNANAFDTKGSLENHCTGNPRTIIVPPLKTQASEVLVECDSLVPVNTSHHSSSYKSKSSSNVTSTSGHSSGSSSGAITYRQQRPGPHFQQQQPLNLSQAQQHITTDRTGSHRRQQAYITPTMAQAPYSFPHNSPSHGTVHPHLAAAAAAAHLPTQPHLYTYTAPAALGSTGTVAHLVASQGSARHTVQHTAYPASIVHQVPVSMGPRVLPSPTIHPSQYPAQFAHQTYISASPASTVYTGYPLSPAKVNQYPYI

Ki [1]: > 2 µM (inactive)
Ki [2]: 39.8 nM (active)
Ki [3]: 158 nM (active)
Ki [4]: 200 nM (active)
Ki [5]: 501 nM (active)
Ki [6]: 79.4 nM (active)
Ki [7]: > 2 µM (inactive)
Ki [8]: > 1.58 µM (inactive)
Ki [9]: > 1.58 µM (inactive)
Ki [10]: > 7.94 µM (inactive)
Ki [11]: > 1.26 µM (inactive)
Ki [12]: > 6.31 µM (inactive)
Ki [13]: 100 nM (active)
Ki [14]: 1.26 µM (active)
Ki [15]: > 3.98 µM (inactive)
Ki [16]: > 1.58 µM (inactive)
Ki [17]: 251 nM (active)
Ki [18]: 15.8 nM (active)
Ki [19]: 25.1 nM (active)
Ki [20]: 631 nM (active)
Ki [21]: 398 nM (active)
Ki [22]: > 2 µM (inactive)
Ki [23]: > 2 µM (inactive)
Ki [24]: 158 nM (active)
Ki [25]: 79.4 nM (active)
Ki [26]: 1.26 µM (active)
Ki [27]: 126 nM (active)
Ki [28]: 316 nM (active)
Ki [29]: 7.94 µM (active)
Ki (Ephrin type-A receptor 2): > 3.16 µM (inactive)
Ki [30]: 31.6 nM (active)
Ki [31]: 39.8 nM (active)
Ki [32]: 251 nM (active)
Ki [33]: 5.01 nM (active)
Ki [34]: 1.58 µM (active)
Ki [35]: 1.58 µM (active)
Ki [36]: 158 nM (active)
Ki [37]: > 10 µM (inactive)
Ki [38]: > 7.94 µM (inactive)
Ki [39]: 31.6 nM (active)
Ki [40]: 25.1 nM (active)
Ki [41]: 6.31 nM (active)
Ki [42]: 31.6 nM (active)
Ki [43]: 63.1 nM (active)
Ki [44]: > 2.51 µM (inactive)
Ki [45]: 5.01 µM (active)
Compound: NC1CCCCC1Nc1nccc(-c2c[nH]c3ncccc23)n1 (stereo unspecified)
